Experiments:
Assay type in all cases: cell-based
HCT15 = assay: Test A: Cytostatic Cell Culture Assay (GI50), HCT15; details: Homo sapiens, HCT-15, 120 h; HCT15 cells, 5 days, SRB; read-out: G150 Colon HCT15
Excerpt: (§1) Test A: Cytostatic Cell Culture Assay (GI50)
(§2) This assay is based on quantification of cell counts by a calorimetric detection of the cell associated proteins. The assay relies on the ability of sulforhodamine B (SRB) to bind to protein components of cells that have been fixed to tissue-culture plates by trichloroacetic acid (TCA). SRB is a bright-pink aminoxanthene dye with two sulfonic groups that bind to basic amino-acid residues under mild acidic conditions, and dissociate under basic conditions. As the binding of SRB is stoichiometric, the amount of dye extracted from stained cells is directly proportional to the cell mass.
(§3) Cell lines: All cell lines are obtained from ATCC (Manassas, Va.). Cultivation media containing Glutanax, and trypsin are purchased from Invitrogen (Carlsbad, Calif.). Doxorubicin, Clofarabine, TCA and SRB are from Sigma-Aldrich (St. Louis, Mo.). Gemcitabine is obtained from Moravek Biochemicals (Brea, Calif.)
(§4) • 1. Trypsinize the sub-confluent cells, count them, and adjust the cell concentrations according to the cell counts listed in Table 1. • 2. Distribute the cells into the 96-well plates in 150 μL of media. Incubate the plates overnight in humidified CO2 incubator at 37° C. • 3. Fix one plate of each cell line with TCA. Discard the cultivation media from the plates by flicking them gently and add 100 μL cold 10% (vol/vol) TCA to each well. Incubate the plates at 4 degree refrigerator for 1 hour. Discard TCA from the plates by flicking them gently. Rinse plates four times in a washing basin containing tap water. Store the plates at room temperature. These plates represent cell counts on day zero. • 4. Prepare a set of medium solutions containing various concentrations of tested compounds by making 5-fold serial dilutions in 96-well plate. Add 50 μL of the diluted compounds per well. Include controls with untreated cells and cells treated with doxorubicin, clofarabine and gemcitabine. • 5. Incubate the plates for 5 days at 37° C. • 6. Fix the plates with TCA. Discard the cultivation media from the plates by flicking them gently and add 100 μL cold 10% (vol/vol) TCA to each well. Incubate the plates at 4 degree refrigerator for 1 hour. Discard TCA from the plates by flicking them gently. Rinse plates four times in a washing basin containing tap water. • 7. Remove excess water by tapping the plates face down, gently on a paper towel. Allow the plates to air-dry at room temperature. • 8. Add 100 μL of 0.057% SRB solution in 1% (vol/vol) acetic acid to each well of the plates fixed with TCA on day zero and five. Leave at room temperature for 30 minutes. • 9. Flick the plates gently to discard SRB. Rinse the plates four times with 1% (vol/vol) Acetic Acid. • 10. Store the plates at 370 incubator to facilitate faster drying. • 11. Once the plates are completely dry, add 200 μL of 10 mM Tris base solution (pH 10.5) to each well. Leave at room temperature for 30 minutes for SRB to solubilize. • 12. Measure the OD at 500 nm in a microplate reader. • 13. Calculate the percentage of cell-growth inhibition using the next formula: % of control cell growth=100×(ODsample−mean ODday0)/(ODneg control−mean ODday0)
(§5) For GI50 determination, plot a dose-response curves between the compound concentration and percent of growth inhibition. GI50 values can be derived by fitting dose-response curves using sigmoidal dose response equation.

A549 = assay: Test A: Cytostatic Cell Culture Assay (GI50), A549; details: Homo sapiens, 120 h; A549 cells, 5 days, SRB; read-out: G150 Lung A549
Excerpt: as §1, §2, §3, §4, §5

Hs578 = assay: Test A: Cytostatic Cell Culture Assay (GI50), Hs578; details: 120 h; Hs578 cells, 5 days, SRB; read-out: G150 Breast Hs578
Excerpt: as §1, §2, §3, §4, §5

PC3 = assay: Test A: Cytostatic Cell Culture Assay (GI50), PC3; details: Homo sapiens, PC-3, 120 h; PC3 cells, 5 days, SRB; read-out: G150 Prostate PC3
Excerpt: as §1, §2, §3, §4, §5

HCT116 = assay: Test A: Cytostatic Cell Culture Assay (GI50), HCT116; details: Homo sapiens, HCT-116, 120 h; HCT116 cells, 5 days, SRB; read-out: G150 Colon HCT116
Excerpt: as §1, §2, §3, §4, §5

NCIH23 = assay: Test A: Cytostatic Cell Culture Assay (GI50), NCIH23; details: Homo sapiens, NCI-H23, 120 h; NCIH23 cells, 5 days, SRB; read-out: G150 Lung NCIH23
Excerpt: as §1, §2, §3, §4, §5

Du145 = assay: Test A: Cytostatic Cell Culture Assay (GI50), Du145; details: Homo sapiens, DU-145, 120 h; Du145 cells, 5 days, SRB; read-out: G150 Prostate Du145
Excerpt: as §1, §2, §3, §4, §5

Structure (SMILES)	IC50 (HCT15)	IC50 (A549)	IC50 (Hs578)	IC50 (PC3)	IC50 (HCT116)	IC50 (NCIH23)	IC50 (Du145)
OC[C@H]1O[C@@H](n2ccc3c(-c4cn[nH]c4)ncnc32)[C@H](O)[C@@H]1O [Example 17, 4-(1H-Pyrazol-4-yl)-7-(β-D-ribofuranosyl)-7H-pyrrolo[2,3-d]pyrimidine]	0.674 µM	6.23 µM	3.06 µM	0.427 µM	5.69 µM	5.23 µM	0.075 µM
OC[C@H]1O[C@@H](n2ccc3c(Cc4ccccc4)ncnc32)[C@H](O)[C@@H]1O [Example 2, 4-Benzyl-7-(β-D-ribofuranosyl)-7H-pyrrolo[2,3-d]pyrimidine]		> 20 µM	> 20 µM		> 20 µM		15.7 µM
OC[C@H]1O[C@@H](n2cc(F)c3c(-c4ccoc4)ncnc32)[C@H](O)[C@@H]1O [Example 23, 5-Fluoro-4-(furan-3-yl)-7-(β-D-ribofuranosyl)-7H-pyrrolo[2,3-d]pyrimidine]	0.039 µM	0.06 µM	0.177 µM	0.087 µM	0.018 µM	4.64 µM	0.005 µM
OC[C@H]1O[C@@H](n2ccc3c(-c4cccnc4)ncnc32)[C@H](O)[C@@H]1O [Example 10]	> 20 µM	> 20 µM	> 20 µM	> 20 µM	> 20 µM	> 20 µM	> 20 µM
OC[C@H]1O[C@@H](n2ccc3c(-c4ccn[nH]4)ncnc32)[C@H](O)[C@@H]1O [Example 16]	1.06 µM	3.25 µM	3.94 µM	0.56 µM	7.31 µM	3.23 µM	0.409 µM
OC[C@H]1O[C@@H](n2ccc3c(-c4ccc[nH]4)ncnc32)[C@H](O)[C@@H]1O [Example 7, 4-(1H-Pyrrol-2-yl)-7-(β-D-ribofuranosyl)-7H-pyrrolo[2,3-d]pyrimidine]	2.44 µM	> 20 µM	1.28 µM	1.28 µM	> 20 µM	2.5 µM	0.63 µM
OC[C@H]1O[C@@H](n2ccc3c(-c4nccs4)ncnc32)[C@H](O)[C@@H]1O [Example 8, 7-(β-D-Ribofuranosyl)-4-(thiazol-2-yl)-7H-pyrrolo[2,3-d]pyrimidine]	0.208 µM	0.409 µM	0.294 µM	0.104 µM	0.484 µM	4.39 µM	0.019 µM
OC[C@H]1O[C@@H](n2cc(F)c3c(-c4ccccc4)ncnc32)[C@H](O)[C@@H]1O [Example 19, 5-Fluoro-4-phenyl-7-(β-D-ribofuranosyl)-7H-pyrrolo[2,3-d]pyrimidine]		12.9 µM	19.2 µM		> 20 µM		0.581 µM
OC[C@H]1O[C@@H](n2cc(Cl)c3c(-c4ccoc4)ncnc32)[C@H](O)[C@@H]1O [Example 31, 5-Chloro-4-(furan-3-yl)-7-(β-D-ribofuranosyl)-7H-pyrrolo[2,3-d]pyrimidine]	0.632 µM	1.05 µM	1.58 µM	1.2 µM	1.96 µM	5.26 µM	0.054 µM
OC[C@H]1O[C@@H](n2cc(F)c3c(-c4nccs4)ncnc32)[C@H](O)[C@@H]1O [Example 25, 5-Fluoro-7-(β-D-ribofuranosyl)-4-(thiazol-2-yl)-7H-pyrrolo[2,3-d]pyrimidine]	0.361 µM	0.902 µM	0.566 µM	0.175 µM	1.27 µM	4.98 µM	0.024 µM
OC[C@H]1O[C@@H](n2ccc3c(-c4cc[nH]c4)ncnc32)[C@H](O)[C@@H]1O [Example 14, 4-(1H-Pyrrol-3-yl)-7-(β-t-ribofuranosyl)-7H-pyrrolo[2,3-d]pyrimidine]	0.163 µM	0.365 µM	0.442 µM	0.384 µM	0.5 µM	2.32 µM	0.03 µM
CCc1ncnc2c1ccn2[C@@H]1O[C@H](CO)[C@@H](O)[C@H]1O [Example 1, 4-Ethyl-7-(β-D-ribofuranosyl)-7H-pyrrolo[2,3-d]pyrimidine]		4.4 µM	4.68 µM		2.56 µM		1.24 µM
OC[C@H]1O[C@@H](n2cc(F)c3c(-c4cc[nH]c4)ncnc32)[C@H](O)[C@@H]1O [Example 27, 5-Fluoro-7-(β-D-ribofuranosyl)-4-(pyrrol-3-yl)-7H-pyrrolo[2,3-d]pyrimidine]	0.065 µM	0.126 µM	0.356 µM	0.06 µM	0.255 µM	1.6 µM	0.01 µM
OC[C@H]1O[C@@H](n2cc(F)c3c(-c4ccc[nH]4)ncnc32)[C@H](O)[C@@H]1O [Example 22]	0.111 µM	0.195 µM	0.315 µM	0.176 µM	0.453 µM	2.61 µM	0.009 µM
OC[C@H]1O[C@@H](n2ccc3c(-c4ccc[se]4)ncnc32)[C@H](O)[C@@H]1O [Example 15, 7-(O-D-Ribofuranosyl)-4-(selenophen-2-yl)-7H-pyrrolo[2,3-d]pyrimidine]	0.005 µM	0.23 µM	0.29 µM	0.012 µM	0.342 µM	2.52 µM	0.028 µM
OC[C@H]1O[C@@H](n2cc(Cl)c3c(-c4cccs4)ncnc32)[C@H](O)[C@@H]1O [Example 30, 5-Chloro-7-(β-D-ribofuranosyl)-4-(thiophen-2-yl)-7H-pyrrolo[2,3-d]pyrimidine]	0.081 µM	0.375 µM	1.64 µM	0.035 µM	0.275 µM	2.02 µM	0.013 µM
OC[C@H]1O[C@@H](n2cc(Cl)c3c(-c4ccco4)ncnc32)[C@H](O)[C@@H]1O [Example 29, 5-Chloro-4-(furan-2-yl)-7-(β-D-ribofuranosyl)-7H-pyrrolo[2,3-d]pyrimidine]	8.15 µM	15.2 µM	> 20 µM	> 20 µM	> 20 µM	13.2 µM	10 µM
OC[C@H]1O[C@@H](n2ccc3c(-c4ccccn4)ncnc32)[C@H](O)[C@@H]1O [Example 18, 4-(Pyridin-2-yl)-7-(β-D-ribofuranosyl)-7H-pyrrolo[2,3-d]pyrimidine]		4.86 µM	> 20 µM		> 20 µM		0.387 µM
COc1ccc(-c2ncnc3c2ccn3[C@@H]2O[C@H](CO)[C@@H](O)[C@H]2O)cc1 [Example 3, 4-(4-Methoxyphenyl)-7-(β-D-ribofuranosyl)-7H-pyrrolo[2,3-d]pyrimidine]		> 20 µM	> 20 µM		> 20 µM		1.31 µM
OC[C@H]1O[C@@H](n2ccc3c(-c4ccc(F)cc4)ncnc32)[C@H](O)[C@@H]1O [Example 4, 4-(4-Fluorophenyl)-7-(β-D-ribofuranosyl)-7H-pyrrolo[2,3-d]pyrimidine]		> 20 µM	2.52 µM		> 20 µM		0.729 µM

Reference: patent US8093226B2, “Cytostatic 7-deazapurine nucleosides” (Institute of Organic Chemistry and Biochemistry of the …, priority 2008, dated 2012)
